# Key:
# Dorea formicigenerans = experiment: IC25 growth inhibition; higher = less potent
# In short: (§1)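 Overnight monocultures grown in mGAM were moved into pre-reduced plates containing twofold drug dilutions, at a starting OD578 of 0.01 with 1% DMSO (or water). Plates were kept anaerobic and read hourly at OD578 in a plate reader, with at least three biological replicates. For each concentration, the median area under the growth curve was made monotonic, and IC25 was the lowest concentration whose median fell below a cutoff, reported as a tested interval. That cutoff was 0.75.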
# [1] = tested on: Yersinia pseudotuberculosis; experiment: IC25 growth inhibition; higher = less potent
# In short: as §1
# [2] = tested on: Fusobacterium nucleatum subsp. Nucleatum; experiment: IC25 growth inhibition; higher = less potent
# In short: as §1
# Streptococcus salivarius = experiment: IC25 growth inhibition; higher = less potent
# In short: as §1
# Vibrio cholerae = experiment: IC25 growth inhibition; higher = less potent
# In short: as §1
# [3] = tested on: Streptococcus parasanguinis; experiment: IC25 growth inhibition; higher = less potent
# In short: as §1
# Bacteroides uniformis = experiment: IC25 growth inhibition; higher = less potent
# In short: as §1
# Roseburia intestinalis = experiment: IC25 growth inhibition; higher = less potent
# In short: as §1
# [4] = tested on: Bacteroides thetaiotaomicron; experiment: IC25 growth inhibition; higher = less potent
# In short: as §1
# Parabacteroides merdae = experiment: IC25 growth inhibition; higher = less potent
# In short: as §1
# Shigella flexneri = experiment: IC25 growth inhibition; higher = less potent
# In short: as §1
# Ruminococcus gnavus = experiment: IC25 growth inhibition; higher = less potent
# In short: as §1
# Bacteroides vulgatus = experiment: IC25 growth inhibition; higher = less potent
# In short: as §1
# Coprococcus comes = experiment: IC25 growth inhibition; higher = less potent
# In short: as §1
# Bacteroides fragilis NT = experiment: IC25 growth inhibition; higher = less potent
# In short: as §1
# [5] = tested on: Yersinia enterocolitica WA-314; experiment: IC25 growth inhibition; higher = less potent
# In short: as §1
# Eubacterium rectale = experiment: IC25 growth inhibition; higher = less potent
# In short: as §1
# Collinsella aerofaciens = experiment: IC25 growth inhibition; higher = less potent
# In short: as §1
# Escherichia coli ED1a = experiment: IC25 growth inhibition; higher = less potent
# In short: as §1
# [6] = tested on: Salmonella enterica typhimurium; experiment: IC25 growth inhibition; higher = less potent
# In short: as §1
# Clostridium ramosum = experiment: IC25 growth inhibition; higher = less potent
# In short: as §1
# Clostridium perfringens = experiment: IC25 growth inhibition; higher = less potent
# In short: as §1
# [7] = tested on: Clostridium saccharolyticum; experiment: IC25 growth inhibition; higher = less potent
# In short: as §1
# Clostridium bolteae = experiment: IC25 growth inhibition; higher = less potent
# In short: as §1
# [8] = tested on: Com21 synthetic gut community; experiment: community biomass OD578 after 24 h drug treatment relative to untreated (fraction of untreated control); higher = more community growth; conditions: community: Com21 (Com20 + E. coli ED1a)
# Description: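 Com21 (Com20 plus E. coli ED1a) was treated with drug for 24 h under anaerobic conditions in mGAM. Community OD578 was then measured and normalised to untreated Com21; mean of 3 biological replicates.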
# [9] = drug pretreatment concentration 10 µM
# [10] = drug pretreatment concentration 20 µM
# [11] = drug pretreatment concentration 40 µM
# [12] = drug pretreatment concentration 80 µM
# [13] = drug pretreatment concentration 160 µM
# 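Wherever IC25 growth inhibition is given: lowest concentration where monotonic median growth AUC falls below 0.75 of drug-free control.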
Compound,IC25 growth inhibition (Dorea formicigenerans) [µM],IC25 growth inhibition [1] [µM],IC25 growth inhibition [2] [µM],IC25 growth inhibition (Streptococcus salivarius) [µM],IC25 growth inhibition (Vibrio cholerae) [µM],IC25 growth inhibition [3] [µM],IC25 growth inhibition (Bacteroides uniformis) [µM],IC25 growth inhibition (Roseburia intestinalis) [µM],IC25 growth inhibition [4] [µM],IC25 growth inhibition (Parabacteroides merdae) [µM],IC25 growth inhibition (Shigella flexneri) [µM],IC25 growth inhibition (Ruminococcus gnavus) [µM],IC25 growth inhibition (Bacteroides vulgatus) [µM],IC25 growth inhibition (Coprococcus comes) [µM],IC25 growth inhibition (Bacteroides fragilis NT) [µM],IC25 growth inhibition [5] [µM],IC25 growth inhibition (Eubacterium rectale) [µM],IC25 growth inhibition (Collinsella aerofaciens) [µM],IC25 growth inhibition (Escherichia coli ED1a) [µM],IC25 growth inhibition [6] [µM],IC25 growth inhibition (Clostridium ramosum) [µM],IC25 growth inhibition (Clostridium perfringens) [µM],IC25 growth inhibition [7] [µM],IC25 growth inhibition (Clostridium bolteae) [µM],"community biomass OD578 [8, 9]","community biomass OD578 [8, 10]","community biomass OD578 [8, 11]","community biomass OD578 [8, 12]","community biomass OD578 [8, 13]"
CCOC(=O)C1=C(COCCN)NC(C)=C(C(=O)OC)C1c1ccccc1Cl (stereo not drawn) [Amlodipine],≤ 40,> 80,≤ 80,≤ 40,> 80,> 80,≤ 80,≤ 40,≤ 80,≤ 80,> 80,≤ 80,≤ 40,> 80,≤ 80,> 80,≤ 80,≤ 80,> 80,> 80,–,–,–,–,–,–,–,–,–
O=C1CCc2ccc(OCCCCN3CCN(c4cccc(Cl)c4Cl)CC3)cc2N1 [Aripiprazole],> 160,> 40,> 160,> 80,> 160,> 80,> 160,> 160,> 160,> 160,> 160,> 160,> 160,> 160,> 160,> 160,> 160,> 160,> 160,> 80,> 160,> 160,> 160,> 160,–,–,–,–,–
CC[C@H](C)[C@H]1O[C@]2(C=C[C@@H]1C)C[C@@H]1C[C@@H](C/C=C(\C)[C@@H](O[C@H]3C[C@H](OC)[C@@H](O[C@H]4C[C@H](OC)[C@@H](O)[C@H](C)O4)[C@H](C)O3)[C@@H](C)/C=C/C=C3\CO[C@@H]4[C@H](O)C(C)=C[C@@H](C(=O)O1)[C@]34O)O2.CO[C@H]1C[C@H](O[C@H]2[C@H](C)O[C@@H](O[C@@H]3/C(C)=C/C[C@@H]4C[C@@H](C[C@]5(C=C[C@H](C)[C@@H](C(C)C)O5)O4)OC(=O)[C@@H]4C=C(C)[C@@H](O)[C@H]5OC/C(=C\C=C\[C@@H]3C)[C@]54O)C[C@@H]2OC)O[C@@H](C)[C@@H]1O [Avermectin B1],≤ 5,> 10,> 40,≤ 10,> 20,≤ 20,≤ 20,≤ 2.5,≤ 20,≤ 10,> 20,≤ 10,≤ 10,≤ 20,≤ 10,> 10,≤ 10,≤ 10,> 160,> 80,≤ 40,≤ 10,≤ 80,≤ 40,–,–,–,–,–
CC[C@H]1OC(=O)[C@H](C)[C@@H](O[C@H]2C[C@@](C)(OC)[C@@H](O)[C@H](C)O2)[C@H](C)[C@@H](O[C@@H]2O[C@H](C)C[C@H](N(C)C)[C@H]2O)[C@](C)(OC)C[C@@H](C)C(=O)[C@H](C)[C@@H](O)[C@]1(C)O [Clarithromycin],< 1.25,> 160,≤ 5,< 1.25,< 1.25,< 1.25,< 1.25,< 1.25,< 1.25,< 1.25,≤ 10,< 1.25,< 1.25,< 1.25,< 1.25,≤ 5,< 1.25,< 1.25,≤ 40,≤ 40,< 1.25,< 1.25,< 1.25,< 1.25,–,–,–,–,–
CCC[C@@H]1C[C@@H](C(=O)N[C@@H]([C@H]2O[C@H](SC)[C@H](O)[C@@H](O)[C@H]2O)[C@H](C)Cl)N(C)C1 [Clindamycin],–,–,–,–,–,–,–,–,–,–,–,–,–,–,–,–,–,–,–,–,–,–,–,–,0.263,0.273,0.238,0.158,0.062
CCN(CC)CCOc1ccc(C(=C(Cl)c2ccccc2)c2ccccc2)cc1 [Clomifen],≤ 10,> 40,≤ 80,≤ 40,≤ 80,≤ 80,≤ 40,≤ 20,≤ 40,≤ 40,> 80,≤ 10,≤ 40,≤ 40,≤ 40,> 80,≤ 40,≤ 20,> 160,> 160,≤ 40,≤ 40,≤ 40,≤ 80,–,–,–,–,–
CCN(CC)CCOc1ccc(C(=C(Cl)c2ccccc2)c2ccccc2)cc1 [Clomiphene],–,–,–,–,–,–,–,–,–,–,–,–,–,–,–,–,–,–,–,–,–,–,–,–,0.947,0.955,0.845,0.398,0.335
CCOC(=O)C1=C(C)NC(C)=C(C(=O)OC)C1c1cccc(Cl)c1Cl (stereo not drawn) [Felodipine],≤ 20,> 80,> 40,≤ 10,> 80,≤ 40,≤ 20,≤ 10,≤ 40,≤ 40,> 80,≤ 40,≤ 20,> 40,≤ 20,> 20,≤ 20,≤ 40,> 40,> 20,–,–,–,–,–,–,–,–,–
CNCCC(Oc1ccc(C(F)(F)F)cc1)c1ccccc1 (stereo not drawn) [Fluoxetine],≤ 40,≤ 160,≤ 80,≤ 80,≤ 160,> 160,≤ 80,≤ 80,≤ 160,≤ 80,> 160,≤ 80,≤ 80,≤ 160,≤ 160,≤ 160,≤ 40,≤ 160,> 160,> 160,> 160,≤ 160,≤ 160,> 160,–,–,–,–,–
CN(C)C(=O)C(CCN1CCC(O)(c2ccc(Cl)cc2)CC1)(c1ccccc1)c1ccccc1 [Loperamide],≤ 80,> 80,> 80,> 80,> 80,> 80,≤ 80,≤ 40,≤ 80,≤ 80,> 80,≤ 80,≤ 80,> 80,≤ 80,> 80,≤ 40,≤ 80,> 160,> 80,> 80,> 80,> 80,> 80,–,–,–,–,–
Cc1c(N(C)CS(=O)(=O)O)c(=O)n(-c2ccccc2)n1C [Metamizol],> 160,> 160,> 160,> 160,> 160,> 160,> 160,> 160,> 160,> 160,> 160,> 160,> 160,> 160,> 160,> 160,> 160,> 160,> 160,> 160,> 160,> 160,> 160,> 160,–,–,–,–,–
